Data: US20130289083A1, “IDO Inhibitors” (priority 2007, published 2013)
Like-named read-outs stand apart in the source and are kept apart here.

How the values were obtained:
[1] = tested on: IDO-293-T-Rex cells
Method: To measure the toxicity of each compound after 16 h incubation with cells, cell viability is measured via a WST-1 assay (Roche) according to instructions from the manufacturer. Briefly, after the incubation with each compound, medium is aspirated and replaced with […] of WST-1 reagent, and incubated 30 min at 37° C. Absorbance at 540 nm is correlated with the number of viable cells. Determination of IC50 (Kynurenine assay) or LD50 (WST-1 assay) is performed via non-linear regression analysis using GraphPad Prism software.
Viability was measure by the WST assay as described in one of the examples.

[2] = biological target: human IDO (Homo sapiens, UniProt P14902); assay: Cell based IDO/kynurenine assay in IDO-293-T-Rex cells; conditions: kynurenine production, 293T cells expressing human IDO
How it was run: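 293-T-REx cells stably carrying doxycycline-inducible human or murine IDO were incubated with inhibitors in induction medium for 16 h at 37° C. Medium was TCA-treated at 60° C and reacted with p-dimethylaminobenzaldehyde. Kynurenine was quantified by absorbance at 480 nm.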

[3] = biological target: T1, murine IDO (Mus musculus, UniProt P28776); assay: Cell based IDO/kynurenine assay in 293-T-Rex cells expressing murine IDO
T1 construct: expressed in transfected cells; host or cells: 293-T-REx cells (Invitrogen), doxycycline-inducible CMV-tet promoter
Method: Transfected cells were selected in DBZ medium (DMEM, 10% FBS, 1× Penicillin+Streptomycin, 2 mM L-glutamine, 5 μg/mL blasticidin and 25 μg/ml Zeocin) at 37° C. with a 5% CO2 in air atmosphere. Individual clones were isolated by limiting dilution cloning from these populations.
The cells incubated in Neutral medium serve as negative control of the assay. The cells incubated in Induction medium and without inhibitor serve as the positive control of the assay. The incubation is carried out for 16 h at 37° C. in a cell culture incubator. 200 μL of medium are transferred to U-bottom polypropylene 96-well plates containing 25 μL of 30% TCA, incubated 30 minutes at 60° C. and centrifuged at 3400 g for 5 minutes. 150 μL of the clear supernatant is transferred to a polystyrene 96-well plate containing 50 μL of 4% (w/v) of p-dimethylaminobenzaldehyde in acetic acid, incubated for 10 min. Kynurenine concentration is determined by measuring the absorbance at 480 nm.

[4] = tested on: 293-T-Rex cells expressing murine IDO; assay: Toxicity / cell viability (LD50) in the murine IDO cell based assay
[5] = biological target: purified human IDO protein (Homo sapiens, UniProt P14902); assay: Enzymatic IDO assay (kynurenine production, absorbance 480 nm); conditions: recombinant human IDO, enzymatic activity
[6] = Table 16, 50% cell viability loss, WST assay, human IDO cell based assay
[7] = Table 16, cell viability loss, murine IDO cell based assay
[8] = Table 16, cells expressing murine IDO, read-out: mIDO EC50
[9] = Table 15, 50% cell viability loss, WST assay, human IDO cell based assay
[10] = Table 15, cells expressing murine IDO, read-out: mIDO EC50
[11] = Table 15, cell viability loss, murine IDO cell based assay

T1 sequence (P28776 whole entry): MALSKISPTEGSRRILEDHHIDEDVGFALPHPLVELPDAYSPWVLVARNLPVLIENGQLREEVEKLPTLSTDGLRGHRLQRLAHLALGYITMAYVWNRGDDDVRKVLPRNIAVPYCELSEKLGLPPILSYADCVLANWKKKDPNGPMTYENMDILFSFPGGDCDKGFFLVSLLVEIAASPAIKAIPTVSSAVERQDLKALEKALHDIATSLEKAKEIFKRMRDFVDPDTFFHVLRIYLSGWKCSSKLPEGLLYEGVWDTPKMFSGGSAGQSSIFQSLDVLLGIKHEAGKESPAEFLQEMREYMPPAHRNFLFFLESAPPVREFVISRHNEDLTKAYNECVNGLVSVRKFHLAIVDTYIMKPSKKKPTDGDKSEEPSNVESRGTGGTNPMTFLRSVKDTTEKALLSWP
human IDO, sequence (P14902 whole entry): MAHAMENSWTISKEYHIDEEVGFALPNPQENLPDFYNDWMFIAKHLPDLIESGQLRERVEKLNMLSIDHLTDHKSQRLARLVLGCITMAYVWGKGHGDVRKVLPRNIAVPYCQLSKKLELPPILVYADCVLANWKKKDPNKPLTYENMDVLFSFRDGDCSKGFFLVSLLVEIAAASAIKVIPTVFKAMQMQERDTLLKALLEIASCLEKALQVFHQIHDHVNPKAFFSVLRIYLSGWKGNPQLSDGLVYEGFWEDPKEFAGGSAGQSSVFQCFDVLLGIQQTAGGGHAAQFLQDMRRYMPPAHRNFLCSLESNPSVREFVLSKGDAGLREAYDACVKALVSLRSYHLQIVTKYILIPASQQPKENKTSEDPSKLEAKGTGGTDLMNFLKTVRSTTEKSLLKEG
purified human IDO protein, sequence (P14902 whole entry P110S/E119G): as the sequence (P14902 whole entry) above, with P110S, E119G counted along it

| Structure (SMILES) | EC50 ([2]; Table 15, read-out: hIDO EC50) | IC50 ([5]; hIDO IC50, Table 15) | EC50 [3, 10] | also measured |
| --- | --- | --- | --- | --- |
| NOCc1cc([N+](=O)[O-])cc([N+](=O)[O-])c1 [compound 1657, O-(3,5-dinitrobenzyl)hydroxylamine] | – | – | – | hIDO LD50 [1, 6]: D (D>1000 μM); EC50 ([2]; hIDO EC50, Table 16): < 10 µM; EC50 ([3]; mIDO EC50, Table 16, cells expressing murine IDO): < 10 µM; mIDO LD50 [4, 7]: D (D>1000 μM); IC50 ([5]; hIDO IC50, Table 16): < 10 µM |
| NOCc1cccc(F)c1 [compound 762, O-(3-fluorobenzyl)hydroxylamine] | – | – | – | hIDO LD50 [1, 6]: D (D>1000 μM); EC50 ([2]; Table 16, read-out: hIDO EC50): < 10 µM; EC50 [3, 8]: < 10 µM; mIDO LD50 [4, 7]: D (D>1000 μM); IC50 ([5]; hIDO IC50, Table 16): < 10 µM |
| NOCc1ccc(I)cc1 [compound 1818, O-(4-iodobenzyl)hydroxylamine] | – | – | – | hIDO LD50 [1]: D (key: A: <10 μM; B: 10-100 μM; C: 100-1000 μM; D>1000 μM); EC50 ([2]; Table 16, read-out: hIDO EC50): < 10 µM; EC50 [3, 8]: 10 to 100 µM; mIDO LD50 [4]: D (key: A: <10 μM; B: 10-100 μM; C: 100-1000 μM; D>1000 μM); IC50 ([5]; hIDO IC50, Table 16): < 10 µM |
| NOCc1cc(F)cc(F)c1 [compound 1770, O-(3,5-difluorobenzyl)hydroxylamine] | < 10 µM | < 10 µM | – | hIDO LD50 [1]: D (key: A: <10 μM; B: 10-100 μM; C: 100-1000 μM; D>1000 μM); EC50 ([3]; Table 15, printed as a number instead of a range class, read-out: mIDO EC50): 2.3 µM; mIDO LD50 [4]: D (key: A: <10 μM; B: 10-100 μM; C: 100-1000 μM; D>1000 μM) |
| NOCc1c[nH]c2ccccc12 [compound 1742, O-((1H-indol-3-yl)methyl)hydroxylamine] | < 10 µM | 10 to 100 µM | < 10 µM | hIDO LD50 [1, 9]: D (D>1000 μM); mIDO LD50 [4, 11]: D (D>1000 μM) |
| NOCc1cccnc1 [compound 1738, O-(pyridin-3-ylmethyl)hydroxylamine] | < 10 µM | 10 to 100 µM | 10 to 100 µM | hIDO LD50 [1, 9]: D (D>1000 μM); mIDO LD50 [4, 11]: D (D>1000 μM) |
| NOCc1cccc(Cl)c1 [compound 1672, O-(3-chlorobenzyl)hydroxylamine] | – | – | – | hIDO LD50 [1]: D (key: A: <10 μM; B: 10-100 μM; C: 100-1000 μM; D>1000 μM); EC50 ([2]; Table 16, read-out: hIDO EC50): < 10 µM; EC50 [3, 8]: < 10 µM; mIDO LD50 [4]: D (key: A: <10 μM; B: 10-100 μM; C: 100-1000 μM; D>1000 μM); IC50 ([5]; hIDO IC50, Table 16): < 10 µM |
| NOCc1ccc2ccccc2c1 [compound 1736, O-(naphthalen-2-ylmethyl)hydroxylamine] | < 10 µM | < 10 µM | < 10 µM | hIDO LD50 [1, 9]: D (D>1000 μM); mIDO LD50 [4, 11]: D (D>1000 μM) |
| NOCc1cc(Cl)cc(Cl)c1 [compound 1769, O-(3,5-dichlorobenzyl)hydroxylamine] | < 10 µM | < 10 µM | < 10 µM | hIDO LD50 [1]: D (key: A: <10 μM; B: 10-100 μM; C: 100-1000 μM; D>1000 μM); mIDO LD50 [4]: D (key: A: <10 μM; B: 10-100 μM; C: 100-1000 μM; D>1000 μM) |
| N#Cc1ccc(CON)cc1 [compound 1896, 4-(aminooxymethyl)benzonitrile] | < 10 µM | < 10 µM | 10 to 100 µM | hIDO LD50 [1, 9]: D (D>1000 μM); mIDO LD50 [4, 11]: D (D>1000 μM) |
| NOCc1ccccc1I [compound 1817, O-(2-iodobenzyl)hydroxylamine] | – | – | – | hIDO LD50 [1]: D (key: A: <10 μM; B: 10-100 μM; C: 100-1000 μM; D>1000 μM); EC50 ([2]; Table 16, read-out: hIDO EC50): < 10 µM; EC50 [3, 8]: 10 to 100 µM; mIDO LD50 [4]: D (key: A: <10 μM; B: 10-100 μM; C: 100-1000 μM; D>1000 μM); IC50 ([5]; hIDO IC50, Table 16): < 10 µM |
| NOCc1ccccc1NCc1ccccc1 [compound 1662, 2-(aminooxymethyl)-N-benzylaniline] | < 10 µM | < 10 µM | 100 to 1000 µM | – |
| NOCc1c(F)cccc1Cl [compound 1674, O-(2-chloro-6-fluorobenzyl)hydroxylamine] | < 10 µM | 10 to 100 µM | 10 to 100 µM | – |
| NOCc1cccc(Br)c1 [compound 1656, O-(3-bromobenzyl)hydroxylamine] | – | – | – | EC50 ([2]; Table 16, read-out: hIDO EC50): < 10 µM; EC50 [3, 8]: < 10 µM; IC50 ([5]; hIDO IC50, Table 16): < 10 µM |
| NOCCCc1ccccc1 [compound 1693, O-(3-phenylpropyl)hydroxylamine] | – | – | – | EC50 ([2]; Table 16, read-out: hIDO EC50): < 10 µM; EC50 [3, 8]: 10 to 100 µM; IC50 ([5]; hIDO IC50, Table 16): 10 to 100 µM |

Continued, in another order:

| EC50 ([2]; Table 15, read-out: hIDO EC50) | IC50 ([5]; hIDO IC50, Table 15) | EC50 [3, 10] | Structure (SMILES) | also measured |
| --- | --- | --- | --- | --- |
| 10 to 100 µM | < 10 µM | 100 to 1000 µM | NOCc1cc(Cl)ccc1-c1ccccc1Cl [compound 1915, O-((2′,4-dichlorobiphenyl-2-yl)methyl)hydroxylamine] | – |
| < 10 µM | < 10 µM | 10 to 100 µM | NOCc1cc(Cl)cc(-c2ccc(Cl)cc2)c1 [compound 1893, O-((4′,5-dichlorobiphenyl-3-yl)methyl)hydroxylamine] | – |
| < 10 µM | < 10 µM | 10 to 100 µM | NOCc1ccccc1Nc1ccccc1 [compound 1871, 2-(aminooxymethyl)-N-phenylaniline] | – |
| < 10 µM | < 10 µM | 10 to 100 µM | NOCc1ccccc1-c1ccccc1 [compound 1827, O-(biphenyl-2-ylmethyl)hydroxylamine] | – |
| < 10 µM | < 10 µM | 10 to 100 µM | NOCc1cc(Cl)ccc1-c1ccccc1 [compound 1916, O-((4-chlorobiphenyl-2-yl)methyl)hydroxylamine] | – |
| < 10 µM | < 10 µM | < 10 µM | NOCC1CCc2ccccc2O1 (stereo not shown) [compound 1768, O-(chroman-2-ylmethyl)hydroxylamine] | – |
| < 10 µM | 10 to 100 µM | 100 to 1000 µM | NOCc1ccccc1-c1ccncc1 [compound 1889, O-(2-(pyridin-4-yl)benzyl)hydroxylamine] | – |
| < 10 µM | < 10 µM | < 10 µM | NOCc1nc2ccccc2s1 [compound 1749, O-(benzo[d]thiazol-2-ylmethyl)hydroxylamine] | – |
| < 10 µM | < 10 µM | 10 to 100 µM | NOCc1cc(Cl)ccc1-c1cccc(Cl)c1 [compound 1918, O-((3′,4-dichlorobiphenyl-2-yl)methyl)hydroxylamine] | – |
| < 10 µM | < 10 µM | 100 to 1000 µM | COC(=O)CCC(ON)c1ccccc1 (stereo not shown) [compound 1880, methyl 4-(aminooxy)-4-phenylbutanoate] | – |
